Where “and” joins values, the source holds several entries; their conditions need not be identical. Identical values can stand only once.
Experiment: In vivo metabolism and excretion of [14C]COMPOUND I in male beagle dogs, single oral 3 mg/kg dose
Set-up: species or system dog
Details: for Cumulative Percent Excretion of Radioactivity in Feces (includes cage rinse): mean ± SD (n = 4)
Method: Dose preparation, animal dosing, and specimen collection were performed at Wyeth Research, Collegeville, Pa. The vehicle contained 2% (w/v) polysorbate 80, NF and 0.5% (w/v) methylcellulose (4000 cps) in water. [^14C]COMPOUND I trisuccinate salt (50.25 mg) and non-labeled COMPOUND I trisuccinate salt (331.9 mg) were suspended in 72 mL of the vehicle by grinding with a mortar and a pestle. The target [^14C]COMPOUND I concentration was approximately 3 mg/mL as free base and 48 μCi/mL with a target specific activity of 16 μCi/mg. Three pre- and post-dose aliquots (100 μL) were taken for the determination of radiochemical purity, drug and radioactivity concentrations and specific activity (see below).
Four male beagle dogs, weighing from 9.4 to 11.5 kg at the time of dosing, were from an in-house colony. Non-fasted dogs were given a single 3 mg/kg (approximately 48 μCi/kg) dose of [^14C]COMPOUND I at a volume of 1 mL/kg via intragastric gavage. Animals were provided Purina dog chow and water ad libitum, and were housed individually in metabolic cages.
Blood samples were collected from the jugular vein at 1, 4, 8, 24, 48, 72 and 120 hr after dose administration into tubes containing potassium EDTA as the anticoagulant and then placed on ice. Aliquots of 200 μL were removed and plasma was harvested immediately from the remaining blood by centrifugation at 4° C. Urine samples were collected into tubes on dry ice from 0-24 and 24-48 hr, and then at ambient temperature at 24 hr intervals for 7 days post-dose. Fecal samples were collected at 24 hr intervals for 7 days post-dose at room temperature. Cage rinses were collected daily by rinsing each cage with approximately 500 mL of 30% ethanol in water. The dose aliquots and biological specimens were stored at approximately −70° C. until analysis.
Triplicate aliquots of diluted dose (20 μL), dose fractions (10 μL) and plasma (50 μL), urine (200 μL) and cage wash (500 μL) from individual dogs were analyzed for radioactivity content. The samples were assayed in a Tri-Carb Model 3100TR liquid scintillation counter (Perkin Elmer) using 5 mL of Ultima Gold scintillation cocktail.
Fecal samples from individual dogs were weighed and homogenized in water at a volume-to-weight ratio of about 4:1 with a Silverson sealed-unit homogenizer at ambient temperature. Triplicate aliquots of whole blood (50 μL) and fecal homogenates (approximately 0.2 g) were placed into Combusto-cones with Combusto-pads and allowed to dry overnight. Samples were combusted with a model 307 Tri-Carb Sample Oxidizer, equipped with an Oximate-80 Robotic Automatic Sampler (Perkin Elmer). The liberated ^14CO2 was trapped with Carbo-Sorb® E carbon dioxide absorber, mixed with PermaFluor® E+liquid scintillation cocktail, and counted in a Tri-Carb Model 3100 TR/LL liquid scintillation counter.
Plasma samples were pooled by mixing equal volumes from four animals at each time point (1, 4, 8 and 24 hr). Aliquots of 2.0 mL of pooled plasma were mixed with 2.0 mL of acetonitrile, placed on ice for about 10 min, and then centrifuged at 4° C. The supernatant was transferred to a clean tube. The protein pellets were extracted two more times with 2.0 mL of acetonitrile. The supernatants from precipitation and extraction of each sample were pooled, mixed, and evaporated at 22° C. under nitrogen in a TurboVap LV evaporator (Caliper Life Sciences, Hopkinton, Mass.) to about 0.8 mL. The concentrated extract was centrifuged, the supernatant volume measured and the extraction efficiency was determined by analyzing duplicate 10 μL aliquots for radioactivity concentrations. For metabolite profiling, an aliquot of the supernatant (200 μL) was injected onto the HPLC column as described hereinbelow, and fractions were collected at 20 second intervals into 96-well Lumaplates (Perkin Elmer).

[1] = 1 hr, 3 mg/kg oral, individual dogs, 3 mg/kg
[2] = 4 hr, 3 mg/kg oral, individual dogs, 3 mg/kg
[3] = 8 hr, 3 mg/kg oral, individual dogs, 3 mg/kg
[4] = 24 hr, 3 mg/kg oral, individual dogs, 3 mg/kg
[5] = 48 hr, 3 mg/kg oral, individual dogs, 3 mg/kg
[6] = 72 hr, 3 mg/kg oral, individual dogs, 3 mg/kg
[7] = 120 hr, 3 mg/kg oral, individual dogs, 3 mg/kg
[8] = 120 hr, 3 mg/kg oral, mean ± SD

In the case of COc1cc(N2CCN(C3CCN(c4ccc(F)c5cccnc45)CC3)CC2)c2ncccc2c1 [[^14C]COMPOUND I, [piperazine-^14C(U)]-5-fluoro-8-(4-(4-(6-methoxyquinolin-8-yl)piperazin-1-yl)piperidin-1-yl)quinoline trisuccinate], the “Recovery of Radioactivity in Cage Rinse (Percent of Dose)” value (“Recovery … (Percent of Dose)” for short) (0-24 hr, 3 mg/kg oral, individual dogs, 3 mg/kg) is reported as 0.18% and 1.64% and 1.74% and 0.78%, the “Recovery … (Percent of Dose)” value (0-24 hr, 3 mg/kg oral, mean ± SD) is reported as 1.09 ± 0.74% and the “Recovery of Radioactivity in Cage Rinse (Cumulative Percent of Dose)” value (“Recovery … (Cumulative Percent of Dose)” for short) (0-48 hr, 3 mg/kg oral, individual dogs, 3 mg/kg) is reported as 0.46% and 2.57% and 2.20% and 1.75%. For the same compound, the “Recovery … (Cumulative Percent of Dose)” value (0-48 hr, 3 mg/kg oral, mean ± SD) was 1.75 ± 0.92%, the “Cumulative Percent Excretion of Radioactivity in Feces (includes cage rinse)” value (0-48 hr, 3 mg/kg oral, 3 mg/kg) was 61.2% and 61.2 ± 14.1% and the “Recovery … (Cumulative Percent of Dose)” value (0-72 hr, 3 mg/kg oral, individual dogs, 3 mg/kg) was 0.65% and 3.00% and 2.57% and 1.97%. For the same compound, the “Recovery … (Cumulative Percent of Dose)” value (0-72 hr, 3 mg/kg oral, mean ± SD) was 2.05 ± 1.02%, the “Recovery … (Cumulative Percent of Dose)” value (0-96 hr, 3 mg/kg oral, individual dogs, 3 mg/kg) was 0.72% and 3.27% and 2.66% and 2.05% and the “Recovery … (Cumulative Percent of Dose)” value (0-96 hr, 3 mg/kg oral, mean ± SD) was 2.18 ± 1.09%. For the same compound, the “Recovery … (Cumulative Percent of Dose)” value (0-120 hr, 3 mg/kg oral, individual dogs, 3 mg/kg) was 0.75% and 3.39% and 2.73% and 2.12%, the “Recovery … (Cumulative Percent of Dose)” value (0-120 hr, 3 mg/kg oral, mean ± SD) was 2.25 ± 1.13% and the “Recovery … (Cumulative Percent of Dose)” value (0-144 hr, 3 mg/kg oral, individual dogs, 3 mg/kg) was 0.79% and 3.49% and 2.77% and 2.17%. For the same compound, the “Recovery … (Cumulative Percent of Dose)” value (0-144 hr, 3 mg/kg oral, mean ± SD) was 2.31 ± 1.15%, the “Recovery … (Cumulative Percent of Dose)” value (0-168 hr, 3 mg/kg oral, individual dogs, 3 mg/kg) was 0.84% and 3.58% and 2.83% and 2.20% and the “Recovery … (Cumulative Percent of Dose)” value (0-168 hr, 3 mg/kg oral, mean ± SD) was 2.36 ± 1.16%. For the same compound, the “Cumulative Percent Excretion of Radioactivity in Feces (includes cage rinse)” value (0-168 hr, 3 mg/kg oral, 3 mg/kg) was 72.8% and 72.8 ± 3.28%, the “dose excreted in urine” value (3 mg/kg oral) was “less than 7%” and the “Recovery … (Percent of Dose)” value (24-48 hr, 3 mg/kg oral, individual dogs, 3 mg/kg) was 0.28% and 0.93% and 0.46% and 0.97%. The “Recovery … (Percent of Dose)” value (24-48 hr, 3 mg/kg oral, mean ± SD) was 0.66 ± 0.34%, the “Recovery … (Percent of Dose)” value (48-72 hr, 3 mg/kg oral, individual dogs, 3 mg/kg) was 0.19% and 0.43% and 0.37% and 0.22% and the “Recovery … (Percent of Dose)” value (48-72 hr, 3 mg/kg oral, mean ± SD) was 0.30 ± 0.12%. For the same compound, the “Recovery … (Percent of Dose)” value (72-96 hr, 3 mg/kg oral, individual dogs, 3 mg/kg) was 0.07% and 0.27% and 0.09% and 0.08%, the “Recovery … (Percent of Dose)” value (72-96 hr, 3 mg/kg oral, mean ± SD) was 0.13 ± 0.10% and the “Recovery … (Percent of Dose)” value (96-120 hr, 3 mg/kg oral, individual dogs, 3 mg/kg) was 0.03% and 0.12% and 0.07% (2×). The “Recovery … (Percent of Dose)” value (96-120 hr, 3 mg/kg oral, mean ± SD) was 0.07 ± 0.04%, the “Recovery … (Percent of Dose)” value (120-144 hr, 3 mg/kg oral, individual dogs, 3 mg/kg) was 0.04% (2×) and 0.10% and 0.05% and the “Recovery … (Percent of Dose)” value (120-144 hr, 3 mg/kg oral, mean ± SD) was 0.06 ± 0.03%. The “Recovery … (Percent of Dose)” value (144-168 hr, 3 mg/kg oral, individual dogs, 3 mg/kg) was 0.05% and 0.09% and 0.06% and 0.03%, the “Recovery … (Percent of Dose)” value (144-168 hr, 3 mg/kg oral, mean ± SD) was 0.06 ± 0.03% and the “Concentration of Total Radioactivity in Plasma” value (“Concentration … in Plasma” below) [1] was 336 ng equivalents/mL and 426 ng equivalents/mL and 496 ng equivalents/mL and 437 ng equivalents/mL. For the same compound, the “Concentration of Total Radioactivity in Whole Blood” value (“Concentration … in Whole Blood” for short) [1] was 270 ng equivalents/mL and 284 ng equivalents/mL and 404 ng equivalents/mL and 375 ng equivalents/mL, the “Concentration … in Whole Blood” value (1 hr, 3 mg/kg oral, mean ± SD) was 333 ± 66.3 ng equivalents/mL and the “Concentration … in Plasma” value (1 hr, 3 mg/kg oral, mean ± SD, 3 mg/kg) was 424±66.1 ng equivalents/mL. The “Concentration … in Plasma” value [2] was 166 ng equivalents/mL and 228 ng equivalents/mL and 326 ng equivalents/mL and 181 ng equivalents/mL, the “Concentration … in Whole Blood” value [2] was 138 ng equivalents/mL and 201 ng equivalents/mL and 191 ng equivalents/mL and 281 ng equivalents/mL and the “Concentration … in Plasma” value (4 hr, 3 mg/kg oral, mean ± SD) was 225 ± 72.2 ng equivalents/mL. For the same compound, the “Concentration … in Whole Blood” value (4 hr, 3 mg/kg oral, mean ± SD) was 203 ± 59.0 ng equivalents/mL, the “Concentration … in Plasma” value [3] was 102 ng equivalents/mL and 135 ng equivalents/mL and 171 ng equivalents/mL and 121 ng equivalents/mL and the “Concentration … in Whole Blood” value [3] was 93.5 ng equivalents/mL and 131 ng equivalents/mL and 160 ng equivalents/mL and 126 ng equivalents/mL. The “Concentration … in Plasma” value (8 hr, 3 mg/kg oral, mean ± SD) was 132 ± 29.2 ng equivalents/mL, the “Concentration … in Whole Blood” value (8 hr, 3 mg/kg oral, mean ± SD) was 128 ± 27.2 ng equivalents/mL and the “Concentration … in Plasma” value [4] was 49.1 ng equivalents/mL and 69.3 ng equivalents/mL and 155 ng equivalents/mL and 89.7 ng equivalents/mL. For the same compound, the “Concentration … in Whole Blood” value [4] was 41.2 ng equivalents/mL and 63.3 ng equivalents/mL and 98.5 ng equivalents/mL and 82.9 ng equivalents/mL, the “Concentration … in Whole Blood” value (24 hr, 3 mg/kg oral, mean ± SD) was 71.5 ± 24.8 ng equivalents/mL and the “Concentration … in Plasma” value (24 hr, 3 mg/kg oral, mean ± SD, 3 mg/kg) was 90.8±45.9 ng equivalents/mL. The “Concentration … in Plasma” value [5] was 25.5 ng equivalents/mL and 28.2 ng equivalents/mL and 58.5 ng equivalents/mL and 40.7 ng equivalents/mL, the “Concentration … in Whole Blood” value [5] was 22.2 ng equivalents/mL and 30.2 ng equivalents/mL and 40.8 ng equivalents/mL and 42.2 ng equivalents/mL and the “Concentration … in Plasma” value (48 hr, 3 mg/kg oral, mean ± SD) was 38.2 ± 15.1 ng equivalents/mL. For the same compound, the “Concentration … in Whole Blood” value (48 hr, 3 mg/kg oral, mean ± SD) was 33.9 ± 9.44 ng equivalents/mL, the “Concentration … in Plasma” value [6] was 17.6 ng equivalents/mL and 21.4 ng equivalents/mL and 73.6 ng equivalents/mL and 39.0 ng equivalents/mL and the “Concentration … in Whole Blood” value [6] was 16.8 ng equivalents/mL and 22.6 ng equivalents/mL and 25.2 ng equivalents/mL and 31.6 ng equivalents/mL. For the same compound, the “Concentration … in Plasma” value (72 hr, 3 mg/kg oral, mean ± SD) was 37.9 ± 25.6 ng equivalents/mL, the “Concentration … in Whole Blood” value (72 hr, 3 mg/kg oral, mean ± SD) was 24.1 ± 6.14 ng equivalents/mL and the “Concentration … in Plasma” value [7] was 45.1 ng equivalents/mL (2×) and 46.0 ng equivalents/mL and 46.7 ng equivalents/mL. For the same compound, the “Concentration … in Whole Blood” value [7] was 16.6 ng equivalents/mL and 18.4 ng equivalents/mL and 18.0 ng equivalents/mL and 24.0 ng equivalents/mL, the “Concentration … in Plasma” value [8] was 45.7 ± 0.78 ng equivalents/mL and the “Concentration … in Whole Blood” value [8] was 19.3 ± 3.26 ng equivalents/mL. For the same compound, the “administered dose excreted after the completion of the study” value (estimated from radioactivity in urine collected for several additional weeks) was “about 5%”.

Reference: patent US20080262228A1, “Metabolites of 5-fluoro-8- quinoline and methods of preparation and uses thereof” (Wyeth, priority 2006, published 2008)
